Data set [1] is described as follows: Oral pharmacokinetic study in rats. Format: in vivo, Sprague–Dawley (SD) rats. The following applies: SD rats, 5 mg/kg ASPM orally, n = 6. The procedure:
(§1) Preclinical ex vivo and in vivo studies were conducted on male Sprague–Dawley (SD) rats (200–250 g). The SD rats were bred at the Central Animal Research Facility, Manipal Academy of Higher Education, Manipal, India. The SD rats were exposed to a light–dark cycle (12 h each) and had free access to food and water. The rats used in the study were housed in cages at 25 ± 2 °C. All the experimental procedures and animal handling were carried out following the CCSEA (Committee for Control and Supervision of Experiments on Animals, Ministry of Fisheries, Animal Husbandry and Dairying, Government of India) guidelines, and in accordance with ARRIVE guidelines as well. All the animal experimental protocols were approved by the Institutional Animal Ethical Committee, Kasturba Medical College, MAHE, Manipal (Approval No: IAEC/KMC/49/2020). An attempt was made to use the minimum number of rats in an ethically responsible manner.
Overnight-fasted SD rats were divided into 3 groups (n = 6). Group I, ASPM solution; Group II, LP-ASPM; Group III, LP-PD-2. All the groups received ASPM at a dose of 5 mg/kg body weight orally. Blood was drawn from the retro-orbital sinus at different time points between 0 and 48 h in tubes containing disodium EDTA. Blood was centrifuged at 5000 rpm for 10 min, and the clear plasma from the supernatant layer was collected and stored at -80 °C until analysis. The amount of ASPM in the samples was analysed by RP-HPLC. The detailed bioanalytical method development for the quantification of ASPM in rat plasma is given in Supplementary information; Section S3; Table S4; Figure S7. Pharmacokinetic parameters were calculated using PK Solutions 2.0™ (Summit Research Services, Montrose, Colorado).

On the set-up of data set [2]: method as in PMID 30669881. The following applies: pure ASPM dispersion, intestinal fluid (phosphate buffer pH 6.8), within 180 min; cited from earlier work.
The conditions of data set [3]: cited from earlier work.
Data set [4] has as its system L-DOPA-carbidopa-induced hyper locomotor activity. The data set is described as follows: Psychostimulant-induced hyperactivity model, locomotor activity (LMA) test. In kind it is in vivo, Sprague–Dawley (SD) rats. The following applies: L-DOPA-carbidopa-treated rats, ASPM dose 5 mg/kg p.o. The procedure: as §1
The pharmacodynamic study was performed using an induced locomotor activity (LMA) test with a psychostimulant-induced hyperactivity model. The ability of the optimized formulation to reverse hyperactivity in rats was studied. […] A digital Actophotometer (Ikon Instruments, New Delhi, India) was used to assess LMA at 5 min intervals at 1, 2 and 3 h. The LMA was assessed after 1 h of L-DOPA-carbidopa administration in group II. ASPM was administered after 30 min of L-DOPA-carbidopa administration, and LMA was noted after 30 min of ASPM administration in groups III, IV and V.

Data set [5] is described as follows: Ex vivo drug permeation, everted ileum sac model. Format: in vitro ADME, Sprague–Dawley (SD) rats. The following applies: male, Sprague-Dawley, pH 7.4, everted rat ileum sac. On the procedure:
as §1
The absorption of the drug through the ileum portion of the small intestine was determined by an ex vivo drug permeation study using an everted ileum sac model. Overnight-fasted SD rats were sacrificed humanely, and the small intestine was isolated (≈ 10 cm). The isolated ileum segment was carefully everted and pushed completely over a capillary tube. The ileum was then tied between the cannulated parts of the U-shaped glass tube, which was used as a perfusion apparatus. The perfusion apparatus was then placed in a beaker containing 450 mL of Ringer’s solution (pH 7.4). The medium was stirred using magnetic beads at 100 rpm and 37 °C. Plain ASPM solution/liposomal dispersion was added to the beaker. The samples were withdrawn from the cannulated arm of the U tube at predetermined time points of 1, 2 and 3 h, and the same volume of the withdrawn sample was replaced by the addition of fresh Ringer’s solution. The amount of drug absorbed was calculated by analysing the samples using HPLC[22].

In the next data set the test system is Raji B cells. Also noted: method as in PMID 30874464, PMID 32228915, doi:10.1016/j.jddst.2022.103275. The following applies: highest concentration of ASPM tested; cited from earlier work.
The next data set deals with Caco-2 cells. Also noted: method as in PMID 30874464, PMID 32228915, doi:10.1016/j.jddst.2022.103275. To be noted: highest concentration of ASPM tested; cited from earlier work.
The mark [6] stands for this setting: male, Sprague-Dawley, rat, plasma, po.

Molecules are shown by their SMILES. Structures can show the parent of a compound that is named as a salt. Marks after values point to notes of the source that are not given here.

Regarding `CN1CC2c3ccccc3Oc3ccc(Cl)cc3C2C1` (stereo not shown) [ASPM, Asenapine maleate], the t1/2 in data set [1] (5 mg/kg) is 25.52 ± 2.15 h. The half-life (usually the time in which the quantity being followed falls by half) in data set [1] (male, Sprague-Dawley, rat, plasma, po, 5 mg/kg) was 25.2 ± 2.15 h. For the same compound, in data set [1] (setting [6]), the AUC(0-inf) (usually the area under the concentration-time curve extrapolated to infinity) was 3640 ± 347 ng·h/mL; the AUC(0-t) (as a rule, the area under the concentration-time curve up to a stated or last time point) is 2660 ± 221 ng·h/mL; the highest level (Cmax) was 131 ± 7.01 ng/mL; the MRT – broadly, the average time that molecules of a dose stay in the body – was found to be 36 ± 3.16 h. In data set [1] (setting [6]), the Tmax (in general, the time at which the peak concentration occurs) came out at 1 h and the k el was 7.53e-06 s⁻¹. In addition, the drug release entry in data set [2] is on record as “more than 90%”. In addition, in data set [3] (marketed fast-dissolving sublingual tablet, ref 7 (printed at next sentence)), the bioavailability – broadly, dose-corrected exposure relative to a reference, in per cent – is reported as 35%. In addition, the oral bioavailability in data set [3] (oral administration) is on record as less than 2%. Besides, the Locomotor counts in data set [4] (1 h) is 121 ± 17*^$. The Locomotor counts in data set [4] (2 h) is given as 118 ± 18*^$. Moreover, the Locomotor counts in data set [4] (3 h) was 110 ± 15*^$. For the same compound, the Papp (usually the rate of passage across a membrane or cell layer, normalised by area and donor concentration) at 1 h in data set [5] (1 h) was determined as 291 ± 26 ×10⁻⁶ cm/s. The Papp at 2 h in data set [5] (2 h) is 231 ± 31 ×10⁻⁶ cm/s. The compound further displayed a Papp at 3 h in data set [5] (3 h) of 206 ± 30 ×10⁻⁶ cm/s. Further, the cells remaining viable entry with Raji B cells was “more than 80%”. In addition, the cells remaining viable entry in the data set with Caco-2 cells is on record as “more than 80%”.

(Values after paper PMC11568265, “Exploring peptide dendrimers for intestinal lymphatic targeting: formulation and evaluation of peptide dendrimer conjugated liposomes for enhancing the oral bioavailability of Asenapine maleate” (Scientific Reports, 2024).)
